Reference: US12384754B2, “Cocrystals of (1R,3S)-3-(5-cyano-4-phenyl-1,3-thiazol-2-ylcarbamoyl)cyclopentane carboxylic acid” (PALOBIOFARMA, S.L., priority 2020, dated 2025)
Read-outs that look alike come from different tables or passages of the source.

What was measured:
[1] = Plasma pharmacokinetics / oral bioavailability after single IV and PO administration; type: in vivo; settings: male SD rats
Procedure: The objective of this study was to investigate the plasma pharmacokinetics of differentes cocrystals obtained from (1R,3S)-3-(5-cyano-4-phenyl-1, 3-thiazol ylcarbamoyl) cyclopentane carboxylic acid, following a single intravenous (IV) and oral (PO) administration in male SD rats.
Animals were divided into two groups: Group 1 (IV: 1 mg/kg) and Group 2 (PO: 5 mg/kg). Animals in Group 1 and 2 were administered a solution of the different cocrystals of (1R,3S)-3-(5-cyano-4-phenyl-1,3-thiazol-2-ylcarbamoyl) cyclopentane carboxylic acid in normal saline. The blood samples were collected from set of three rats at each time point in labeled micro centrifuge tube containing K2EDTA solution as anticoagulant at Pre-dose, 0.083, 0.25, 0.5, 1, 2, 4, 8 and 24 hr (IV) and Pre-dose, 0.25, 0.5, 1, 2, 4, 6, 8 and 24 hr (PO). Plasma samples were separated by centrifugation of whole blood and stored below −70±10° C. until bioanalysis. All samples were processed for analysis by protein precipitation using acetonitrile and analyzed with fit-for-purpose LC-MS/MS method (LLOQ=1.00 ng/ml). Pharmacokinetic parameters were calculated using the non-compartmental analysis tool of Phoenix WinNonlin® (Version 6.3).

[2] = Comparative bioavailability assay in healthy volunteers; type: in vivo; settings: single oral dose, Example 1 5 mg, Example 2 7.3 mg; for Cmax / Tmax: male, human, plasma, po, 5 mg; for Tmax: read-out: tmax, median and range
Procedure: Healthy volunteers in this study will be males 18 years of age or older in order to assess the comparative bioavailability of compound of Example 2 versus compound of Example 1, under fasting conditions and to investigate the effect of a high fat, high calorie meal. Compounds will be administered orally in single dose of Example 1 (5 mg) and Example 2 (7.3 mg). The study will have a randomized, open-label, four-fold crossover design.
In order to determine comparative bioavailability AUC0-t (AUC0-t: Area under the plasma concentration-time curve from time 0 h to the last measurable concentration) and Cmax (Cmax: Observed maximum plasma concentration (peak exposure)) will be determined after each administration.
16 volunteers were included in the study. […] Therefore, all the data were included in all pharmacokinetic measurements and calculations, without any adjustment.

[3] = Hygroscopicity study by DVS (Dynamic Vapour Sorption); type: physicochemical
Procedure: Hygroscopicity study. The hygroscopicity of cocrystals was determined by DVS (Dynamic Vapour Sorption) with a Q5000 TA instrument. This is a gravimetric technique that measures the amount of water absorbed or desorbed by a sample at different relative humidities (RH). At each RH level, the sample mass must be allowed to reach gravimetric equilibrium (or surpass the time limit) before progressing to the next humidity level. Sorption and desorption isotherms were performed at 25° C. over a range of 0-95% RH. The sample was not previously dried, but it was exposed to 0% RH until reaching a stable weight before starting the DVS cycle. This equilibration step allows the elimination of the possible adsorbed humidity from the atmosphere. The relative humidity (RH) was controlled by a mixture of wet and dry nitrogen stream. The RH was held constant until the equilibrium had been obtained (constant weight) or until the maximum time has been reached, before changing the RH to the next level.

[4] = pKa / ΔpKa of free acid and cocrystal forming compounds; type: physicochemical; settings: free acid; read-out: pKa
Source text: Cocrystals are distinguished from salts because unlike salts, the components that co-exist in the cocrystal lattice with a defined stoichiometry interact nonionically. […] If this criterion is met, the API-coformer entity should be classified as a cocrystal. (Regulatory Classification of Pharmaceutical Co-Crystals Guidance for Industry, February 2018, http://www.fda.gov/Drugs/GuidanceComplianceRegulatotyInformation/Guidances/default.htm).

[5] = Fed (high fat, high calorie meal)

N#Cc1sc(NC(=O)[C@H]2CC[C@@H](C(=O)O)C2)nc1-c1ccccc1 [Example 1, (1R,3S)-3-(5-cyano-4-phenyl-1,3-thiazol-2-ylcarbamoyl) cyclopentane carboxylic acid]
F % (bioavailability) ([1]; po 5 mg/Kg vs iv 1 mg/Kg): 47%
AUClast ([1]; po, 5 mg/Kg): 5200.71 ng·h/mL
Cmax ([1]; po, 5 mg/Kg): 2012 ng/mL
AUC0-t, MEAN ± SD ([2]; Fasting): 1155.0 ± 567.8 ng/mLxh
AUC0-t, geometric mean ([2]; Fasting): (1052.8) ng/mLxh
AUC0-∞, MEAN ± SD ([2]; Fasting): 1257.2 ± 661.9 ng/mLxh
AUC0-∞, geometric mean ([2]; Fasting): (1132.2) ng/mLxh
AUC0-t, MEAN ± SD [2, 5]: 588.1 ± 160.9 ng/mLxh
AUC0-t, geometric mean [2, 5]: (567.9) ng/mLxh
AUC0-∞, MEAN ± SD [2, 5]: 657.9 ± 191.4 ng/mLxh
AUC0-∞, geometric mean [2, 5]: (632.7) ng/mLxh
Cmax ([2]; Fasting, read-out: Cmax, MEAN ± SD): 187 ± 71.6 ng/mL
Cmax ([2]; Fasting, read-out: Cmax, geometric mean): 176 ng/mL
Tmax ([2]; Fasting): 2.5 h
Cmax ([2]; Fed (high fat, high calorie meal), read-out: Cmax, MEAN ± SD): 68 ng/mL
Cmax ([2]; Fed (high fat, high calorie meal), read-out: Cmax, geometric mean): 65.6 ng/mL
Tmax [2, 5]: 7 h
moisture content, 15% RH ([3]; DVS, 25° C., 15% RH): 0.0168
moisture content, 35% RH ([3]; DVS, 25° C., 35% RH): 0.1842
moisture content, 55% RH ([3]; DVS, 25° C., 55% RH): 0.3008
moisture content, 75% RH ([3]; DVS, 25° C., 75% RH): 0.4369
variation in the moisture content ([3]; at 75% RH): 0.43%
pKa [4]: 4.3
